Reference: ChEMBL document CHEMBL3861995 (Bioorg Med Chem, 2016)
pIC50: −log10 of the molar value.

Legend:
[1] = biological target: T1, Protein kinase C (PKC) (Homo sapiens) (UniProt O94806+P41743+P17252+P05129+Q05655+P05771+Q05513+Q02156+P24723+Q15139+Q04759); experiment: Inhibition of PKC in human SH-SY5Y cells assessed as inhibition of PMA-stimulated MARCKS phosphorylation at 3 uM preincubated for 1 hr followed by PMA-stimulation for 15 mins by Western blot analysis relative to control; format: cell-based
[2] = biological target: T1, Protein kinase C (PKC) (Homo sapiens); experiment: Inhibition of PKC in human SH-SY5Y cells assessed as inhibition of PMA-stimulated MARCKS phosphorylation at 10 uM preincubated for 1 hr followed by PMA-stimulation for 15 mins by Western blot analysis relative to control; format: cell-based
[3] = biological target: T2, Estrogen receptor (Homo sapiens, UniProt P03372); experiment: biochemical
T2 sequence (P03372 whole entry): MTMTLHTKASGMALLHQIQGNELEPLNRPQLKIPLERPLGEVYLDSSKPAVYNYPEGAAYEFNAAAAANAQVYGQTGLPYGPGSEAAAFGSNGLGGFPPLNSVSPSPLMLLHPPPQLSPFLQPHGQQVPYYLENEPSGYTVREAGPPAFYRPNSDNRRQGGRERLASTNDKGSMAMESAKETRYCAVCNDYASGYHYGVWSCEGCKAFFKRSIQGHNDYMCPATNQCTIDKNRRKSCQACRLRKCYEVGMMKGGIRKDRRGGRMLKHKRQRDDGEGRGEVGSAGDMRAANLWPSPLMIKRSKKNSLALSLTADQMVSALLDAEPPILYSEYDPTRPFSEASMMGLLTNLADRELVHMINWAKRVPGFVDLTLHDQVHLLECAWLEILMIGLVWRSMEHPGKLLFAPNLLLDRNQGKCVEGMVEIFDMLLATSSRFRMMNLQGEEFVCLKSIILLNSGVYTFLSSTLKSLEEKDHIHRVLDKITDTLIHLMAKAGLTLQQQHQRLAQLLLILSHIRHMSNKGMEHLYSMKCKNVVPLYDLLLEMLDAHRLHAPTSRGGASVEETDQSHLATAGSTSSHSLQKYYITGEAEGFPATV
Description: Displacement of Fluormone ES2 Green from human recombinant full length ERalpha expressed in insect cells measured up to 4 hrs by fluorescence polarization assay

inhibition [1]	inhibition [2]	pIC50 [3]	SMILES
39%	68%	< 5.00	CN(C)CCOc1ccc(C(=C(C#N)c2cccs2)c2ccc(OCCN(C)C)cc2)cc1
83%	78%	< 5.00	CN1CCN(CCOc2ccc(C(=C(C#N)c3ccccc3)c3ccc(OCCN4CCN(C)CC4)cc3)cc2)CC1
62%	72%	6.26	N#CC(=C(c1ccc(OCCN2CCOCC2)cc1)c1ccc(OCCN2CCOCC2)cc1)c1ccccc1
22%	67%	–	CN(C)CCOc1ccc(C(=C(C#N)c2ccccc2)c2ccccc2)cc1

SMILES	inhibition [1]	inhibition [2]	pIC50 [3]
CCN(CC)CCOc1ccc(C(=C(C#N)c2ccccc2)c2ccc(OCCN(CC)CC)cc2)cc1	12%	68%	< 5.00
N#C/C(=C(/c1ccccc1)c1ccc(OCCN2CCOCC2)cc1)c1ccccc1	37%	70%	–
N#C/C(=C(\c1ccccc1)c1ccc(OCCN2CCOCC2)cc1)c1ccccc1	43%	57%	–
